In patent publication US20230278972A1, “SUBSTITUTED HALOALKYL SULFONANILIDE HERBICIDES” (FMC Corporation, priority 2020, published 2023):

Key:
Assay type in all cases: in vivo
[1] = system: wheat (Triticum aestivum); experiment: Test A1 preemergence, wheat
Procedure, shortened: (§1)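 Plants grown in pots of loam/sand mix; preemergence = soil-directed spray on seeded pots, postemergence = spray at 1–2 leaves, height 2–10 cm; test chemicals formulated in non-phytotoxic solvent with surfactant.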

[2] = system: Pigweed, Palmer (palmer amaranth, palmer pigweed, Amaranthus palmeri); experiment: Test A1 postemergence, Pigweed, Palmer; details: Postemergence
Procedure, shortened: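 Seeds were first planted into a blend of loam soil and sand and given a preemergence directed soil spray. In parallel, pots of the same soil were sown for postemergence application once plants reached 2 to 10 cm and the one- to two-leaf stage. Both used surfactant-containing non-phytotoxic solvent formulations.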

rice (Oryza sativa) = experiment: Test B1 flooded paddy test, rice; details: 250 g ai/ha, Flood, applied to paddy water, 2-leaf stage, visually evaluated after 10 to 14 days
Text: A dash (-) response means no test result.

[3] = system: blackgrass (Alopecurus myosuroides); experiment: Test A1 preemergence, blackgrass
Procedure, shortened: as §1

[4] = system: Foxtail, Giant (giant foxtail, Setaria faberi); experiment: Test A1 postemergence, Foxtail, Giant; details: Postemergence
Procedure, shortened: as §1

[5] = system: goosegrass (Eleusine indica); experiment: Test A1 postemergence, goosegrass; details: Postemergence
Procedure, shortened: as §1

[6] = system: Ryegrass, Italian (Italian ryegrass, Lolium multiflorum); experiment: Test A1 postemergence, Ryegrass, Italian; details: Postemergence
Procedure, shortened: as §1

[7] = system: goosegrass (Eleusine indica); experiment: Test A1 preemergence, goosegrass
Procedure, shortened: as §1

[8] = system: blackgrass (Alopecurus myosuroides); experiment: Test A1 postemergence, blackgrass; details: Postemergence, 0 to 100 scale (0 no effect, 100 complete control)
Procedure, shortened: as §1

[9] = system: horseweed (Erigeron canadensis); experiment: Test A1 postemergence, horseweed; details: Postemergence
Procedure, shortened: as §1

[10] = 31 g ai/ha, 0 to 100 scale (0 no effect, 100 complete control)
[11] = 125 g ai/ha, 0 to 100 scale, 0 no effect, 100 complete control
[12] = 31 g ai/ha, 0 to 100 scale (0 no effect, 100 complete control), 10 days

SMILES	Plant response rating, Wheat [1, 10]	Plant response rating, Wheat [1, 11]	Plant response rating, Pigweed, Palmer [2, 12]	Plant response rating, Pigweed, Palmer ([2]; 125 g ai/ha, 0 to 100 scale)	Plant response rating, Rice (0 to 100 scale, 0 is no effect, 100 is complete control) (rice (Oryza sativa))	Plant response rating, Blackgrass [3, 10]	Plant response rating, Blackgrass [3, 11]	Plant response rating, Foxtail, Giant [4, 12]	Plant response rating, Foxtail, Giant ([4]; 125 g ai/ha, 0 to 100 scale)	Plant response rating, Goosegrass [5, 12]	Plant response rating, Goosegrass ([5]; 125 g ai/ha, 0 to 100 scale)	Plant response rating, Ryegrass, Italian [6, 12]	Plant response rating, Ryegrass, Italian ([6]; 125 g ai/ha, 0 to 100 scale)	Plant response rating, Goosegrass [7, 10]	Plant response rating, Goosegrass [7, 11]	Plant response rating, Blackgrass ([8]; 31 g ai/ha, 10 days)	Plant response rating, Blackgrass ([8]; 125 g ai/ha)	Plant response rating, Horseweed [9, 12]	Plant response rating, Horseweed ([9]; 125 g ai/ha, 0 to 100 scale)
Cc1cc(C)c(C2=NOC3OCCC23)cc1NS(=O)(=O)C(F)(F)F (stereo not drawn) [Compound 349]	20	70	20	70	45	50	80	30	90	90	90	60	90	90	100	40	70	90	100
CCOC(=O)N(c1cc(C(=O)N2CCC(c3ccccc3)CC2)c(C)cc1C)S(=O)(=O)C(F)(F)F [Compound 365]	0	0	0	0	15	0	0	0	0	0	0	0	10	10	90	0	30	10	20
Cc1c(C(=O)N2CCCCC2)cc(NS(=O)(=O)C(F)(F)F)c(Cl)c1F [Compound 333]	0	50	40	60	0	0	0	10	30	0	30	0	0	80	80	0	30	0	30
COC1CCCN(C(=O)c2cc(NS(=O)(=O)C(F)(F)F)c(Cl)c(F)c2C)C1 (stereo not drawn) [Compound 334]	0	0	10	50	10	10	10	0	0	0	0	0	0	70	90	0	0	0	30
Cc1cc(C)c(N(COC(=O)C(C)(C)C)S(=O)(=O)C(F)(F)F)cc1C1=NOC2COCC12 (stereo not drawn) [Compound 301]	0	40	0	30	0	30	40	0	60	0	60	0	60	80	100	0	0	50	80
Cc1c(NS(=O)(=O)C(F)(F)F)cc(C2=NOC3CCCC23)c(C)c1C (stereo not drawn) [Compound 335]	0	0	20	30	45	0	0	0	0	0	10	0	30	30	70	0	10	40	70
Cc1c(NS(=O)(=O)C(F)(F)F)cc(C(=O)N(C)C)c(C)c1C [Compound 288]	0	0	0	30	0	0	0	0	70	0	70	0	0	30	90	0	0	20	30
Cc1cc(C)c(N(COC(=O)C(C)C)S(=O)(=O)C(F)(F)F)cc1C1=NOC2CCCC12 (stereo not drawn) [Compound 308]	20	80	0	0	10	0	50	0	40	50	80	0	30	80	90	0	0	0	60
CCOC(=O)N(c1cc(C(=O)N2C[C@@H](C)O[C@@H](C)C2)c(C)c(C)c1C)S(=O)(=O)C(F)(F)F [Compound 332]	10	40	10	30	0	0	0	30	90	0	90	0	50	50	90	0	90	60	80
Cc1cc(C)c(N(COC(=O)C(C)(C)C)S(=O)(=O)C(F)(F)F)cc1C(=O)N1CCOCC1 [Compound 362]	20	70	10	30	10	10	50	20	90	40	90	30	90	90	100	0	50	90	90
Cc1cc(C)c(C2=NOC3CCCCCC23)cc1NS(=O)(=O)C(F)(F)F (stereo not drawn) [Compound 292]	20	90	0	30	0	0	30	0	30	0	80	0	30	80	100	0	0	0	30
Cc1c(C(=O)N2CCC(Cl)CC2)cc(N(COC(=O)C(C)(C)C)S(=O)(=O)C(F)(F)F)c(C)c1C [Compound 359]	0	0	0	20	15	0	0	0	60	0	20	0	0	0	90	0	0	50	80
